Results from patent US20040063662A1, “Selenophene anti-tumor agents” (priority 1996, published 2004).

Columns and labels:
MDA-MB-435 = test: NCI human tumor cell panel: MDA-MB-435 (Breast Cancer); format: cell-based; settings: MDA-MB-435, read-out: Log10 GI50 (converted)
NCI-H522 = test: NCI human tumor cell panel: NCI-H522 (Non-Small Cell Lung Cancer)
NCI-H23 = test: NCI human tumor cell panel: NCI-H23 (Non-Small Cell Lung Cancer); format: cell-based
NCI-H460 = test: NCI human tumor cell panel: NCI-H460 (Non-Small Cell Lung Cancer); format: cell-based
IGROV1 = test: NCI human tumor cell panel: IGROV1 (Ovarian Cancer); format: cell-based
U251 = test: NCI human tumor cell panel: U251 (CNS Cancer); format: cell-based
MCF7/ADR-RES = test: NCI human tumor cell panel: MCF7/ADR-RES (Breast Cancer); format: cell-based
LOX IMVI = test: NCI human tumor cell panel: LOX IMVI (Melanoma); format: cell-based
HS 578T = test: NCI human tumor cell panel: HS 578T (Breast Cancer); format: cell-based
UO-31 = test: NCI human tumor cell panel: UO-31 (Renal Cancer); format: cell-based
HCT-15 = test: NCI human tumor cell panel: HCT-15 (Colon Cancer); format: cell-based
SK-MEL-2 = test: NCI human tumor cell panel: SK-MEL-2 (Melanoma); format: cell-based
HOP-62 = test: NCI human tumor cell panel: HOP-62 (Non-Small Cell Lung Cancer); format: cell-based
TK-10 = test: NCI human tumor cell panel: TK-10 (Renal Cancer); format: cell-based
PC-3 = test: NCI human tumor cell panel: PC-3 (Prostate Cancer); format: cell-based
BT-549 = test: NCI human tumor cell panel: BT-549 (Breast Cancer); format: cell-based
SK-MEL-28 = test: NCI human tumor cell panel: SK-MEL-28 (Melanoma); format: cell-based
SNB-75 = test: NCI human tumor cell panel: SNB-75 (CNS Cancer); format: cell-based
HCC-2998 = test: NCI human tumor cell panel: HCC-2998 (Colon Cancer); format: cell-based
NCI-H322M = test: cells; format: cell-based; settings: Homo sapiens
HT29 = test: NCI human tumor cell panel: HT29 (Colon Cancer); format: cell-based
SR = test: NCI human tumor cell panel: SR (Leukemia); format: cell-based
MDA-N = test: NCI human tumor cell panel: MDA-N (Breast Cancer); format: cell-based
SF-539 = test: NCI human tumor cell panel: SF-539 (CNS Cancer); format: cell-based
SNB-19 = test: NCI human tumor cell panel: SNB-19 (CNS Cancer); format: cell-based
SF-295 = test: NCI human tumor cell panel: SF-295 (CNS Cancer); format: cell-based
OVCAR-5 = test: NCI human tumor cell panel: OVCAR-5 (Ovarian Cancer); format: cell-based
M14 = test: NCI human tumor cell panel: M14 (Melanoma); format: cell-based
OVCAR-4 = test: NCI human tumor cell panel: OVCAR-4 (Ovarian Cancer); format: cell-based; settings: OVCAR-4, read-out: Log10 GI50 (converted)
HOP-92 = test: NCI human tumor cell panel: HOP-92 (Non-Small Cell Lung Cancer)
786-0 = test: NCI human tumor cell panel: 786-0 (Renal Cancer); format: cell-based
EKVX = test: NCI human tumor cell panel: EKVX (Non-Small Cell Lung Cancer); format: cell-based
[1] = read-out: Log10 GI50 (converted)
[2] = read-out: Log10 TGI (converted)

OCc1ccc(-c2ccc(-c3ccc(CO)[se]3)s2)[se]1 [compound 676632] gave a GI50 (MDA-MB-435) of over 100 µM, a GI50 (NCI-H522; NCI-H522, read-out: Log10 GI50 (converted)) of over 100 µM and an IC (TGI) (NCI-H522; NCI-H522, read-out: Log10 TGI) of over 100 µM. The GI50 (NCI-H23; NCI-H23, read-out: Log10 GI50 (converted)) was over 100 µM, the IC (TGI) (NCI-H23; NCI-H23, read-out: Log10 TGI (converted)) was over 100 µM and the GI50 (NCI-H460; NCI-H460, read-out: Log10 GI50 (converted)) was 0.0468 µM. The IC (TGI) (NCI-H460; NCI-H460, read-out: Log10 TGI (converted)) was over 100 µM, the GI50 (IGROV1; IGROV-1, IGROV1, read-out: Log10 GI50 (converted)) was 0.0324 µM and the IC (TGI) (IGROV1; IGROV-1, IGROV1, read-out: Log10 TGI (converted)) was 0.275 µM. The GI50 (U251; U-251, U251, read-out: Log10 GI50 (converted)) was 0.0355 µM, the IC (TGI) (U251; U-251, U251, read-out: Log10 TGI (converted)) was 12 µM and the GI50 (MCF7/ADR-RES; [1]) was over 100 µM. It also gave an IC (TGI) (MCF7/ADR-RES; [2]) of over 100 µM, a GI50 (LOX IMVI; [1]) of over 100 µM and an IC (TGI) (LOX IMVI; [2]) of under 100 µM. It also gave a GI50 (HS 578T; [1]) of over 100 µM, an IC (TGI) (HS 578T; [2]) of over 100 µM and a GI50 (UO-31; UO-31, read-out: Log10 GI50 (converted)) of over 100 µM. It also gave an IC (TGI) (UO-31; UO-31, read-out: Log10 TGI (converted)) of over 100 µM, a GI50 (HCT-15; HCT-15, read-out: Log10 GI50 (converted)) of 0.0447 µM and an IC (TGI) (HCT-15; HCT-15, read-out: Log10 TGI (converted)) of over 100 µM. It also gave a GI50 (SK-MEL-2; SK-MEL-2, read-out: Log10 GI50 (converted)) of over 100 µM, an IC (TGI) (SK-MEL-2; SK-MEL-2, read-out: Log10 TGI (converted)) of over 100 µM and a GI50 (HOP-62; HOP-62, read-out: Log10 GI50 (converted)) of 0.0759 µM. The IC (TGI) (HOP-62; HOP-62, read-out: Log10 TGI (converted)) was over 100 µM, the GI50 (TK-10; TK-10, read-out: Log10 GI50 (converted)) was 0.0282 µM and the IC (TGI) (TK-10; TK-10, read-out: Log10 TGI (converted)) was 0.0813 µM. For the same compound, the GI50 (PC-3; PC-3, read-out: Log10 GI50 (converted)) was over 100 µM, the IC (TGI) (PC-3; PC-3, read-out: Log10 TGI (converted)) was over 100 µM and the GI50 (BT-549; BT-549, read-out: Log10 GI50 (converted)) was 0.195 µM. For the same compound, the IC (TGI) (BT-549; BT-549, read-out: Log10 TGI (converted)) was over 100 µM, the GI50 (SK-MEL-28; SK-MEL-28, read-out: Log10 GI50 (converted)) was over 100 µM and the IC (TGI) (SK-MEL-28; SK-MEL-28, read-out: Log10 TGI (converted)) was over 100 µM. For the same compound, the GI50 (SNB-75; SNB-75, read-out: Log10 GI50 (converted)) was over 100 µM, the IC (TGI) (SNB-75; SNB-75, read-out: Log10 TGI (converted)) was over 100 µM and the GI50 (HCC-2998; HCC-2998, read-out: Log10 GI50 (converted)) was 0.178 µM. For the same compound, the IC (TGI) (HCC-2998; HCC-2998, read-out: Log10 TGI (converted)) was 0.55 µM, the GI50 (NCI-H322M; [1]) was over 100 µM and the IC (TGI) (NCI-H322M; [2]) was over 100 µM. It also gave a GI50 (HT29; HT-29, HT29, read-out: Log10 GI50 (converted)) of over 100 µM, an IC (TGI) (HT29; HT-29, HT29, read-out: Log10 TGI (converted)) of over 100 µM and a GI50 (SR; [1]) of over 100 µM. The IC (TGI) (SR; [2]) was over 100 µM, the GI50 (MDA-N; [1]) was over 100 µM and the IC (TGI) (MDA-N; [2]) was over 100 µM. It also gave a GI50 (SF-539; SF-539, read-out: Log10 GI50 (converted)) of over 100 µM, an IC (TGI) (SF-539; SF-539, read-out: Log10 TGI (converted)) of over 100 µM and a GI50 (SNB-19; SNB-19, read-out: Log10 GI50 (converted)) of 42.7 µM. The IC (TGI) (SNB-19; SNB-19, read-out: Log10 TGI (converted)) was over 100 µM, the GI50 (SF-295; SF-295, read-out: Log10 GI50 (converted)) was over 100 µM and the IC (TGI) (SF-295; SF-295, read-out: Log10 TGI (converted)) was over 100 µM. The GI50 (OVCAR-5; OVCAR-5, read-out: Log10 GI50 (converted)) was 0.0132 µM, the IC (TGI) (OVCAR-5; OVCAR-5, read-out: Log10 TGI (converted)) was 0.0776 µM and the GI50 (M14; M14, read-out: Log10 GI50 (converted)) was over 100 µM. It also gave an IC (TGI) (M14; M14, read-out: Log10 TGI (converted)) of over 100 µM, a GI50 (OVCAR-4) of 0.135 µM and a GI50 (HOP-92; HOP-92, read-out: Log10 GI50 (converted)) of over 100 µM. It also gave a CC50 (HOP-92; HOP-92, read-out: Log10 LC50 (converted)) of over 100 µM, an IC (TGI) (HOP-92; HOP-92, read-out: Log10 TGI) of over 100 µM and a GI50 (786-0; 786-0, read-out: Log10 GI50 (converted)) of over 100 µM. For the same compound, the IC (TGI) (786-0; 786-0, read-out: Log10 TGI (converted)) was over 100 µM, the GI50 (EKVX; [1]) was 50.1 µM and the IC (TGI) (EKVX; [2]) was over 100 µM.
